# Publication PMC12371361 (Frontiers in Immunology, 2025)
# Residues, ends and D or L forms follow the SMILES beside them.
# What was measured:
# [1] = tested on: AAV9 capsid-specific CD8 T cells in healthy donor PBMCs; test: Peptide deconvolution FluoroSpot, CD4-depleted PBMCs expanded with Class I MAPPs pool (IFN-γ); format: cell-based, human; details: for Total no. of responders: 24 healthy donors, CD4-depleted PBMCs expanded 10 days with Class I MAPPs pool, matrix pools 1 µg per peptide/mL, then individual peptide 2 µg/mL, ~24 h, positive = SI ≥1.4; for T cell response in tested donors / donors with the predicted binding allele (in words) / % response in donors with allele(s): CD4-depleted PBMCs expanded with Class I MAPPs pool; for T cell response in tested donors / donors with the predicted binding allele (in words): IFN-γ FluoroSpot; for % response in donors with allele(s): responders among cohort donors expressing the peptide's predicted HLA binding allele(s)
# Description: For the identification of immunodominant CD8 T cell epitopes, the 41 HLA Class I MAPPs peptides were arranged in a matrix of 13 pools, each containing 6–7 peptides ( Supplementary Table 4 ). Per the matrix, each matrix pool was constructed by combining the peptides listed in each column or each row ([16]). Peptides present at the intersection of responding matrix pools were shortlisted and tested individually. All matrix pools were dissolved in 100% DMSO and tested at 1 µg per peptide/mL. For individual testing, peptides were dissolved in 100% DMSO and tested at 2 µg/mL. Matrix pools and individual peptides were synthesized by GenScript.
# Frozen PBMCs were thawed and resuspended in AIM V+ 5% SR at 1X10^6 cells/mL. Cells were stimulated with test peptide pools (1 µg per peptide/mL) and expanded in vitro for 10 days as described previously ([17]). On Days 4 and 7, cells were supplemented with a cytokine cocktail containing IL-2 (R&D Systems, 10 units/mL), IL-7 (R&D Systems, 10 ng/mL), and IL-15 (PeproTech, 10 ng/mL). On Day 10, cells were harvested, washed, and restimulated on precoated IFN-γ FluoroSpot plates (MabTech) in triplicates (125,000 cells/well). Peptide pools (1 µg per peptide/mL) or individual peptides (2 µg/mL, for deconvolution studies) were used for restimulation. Anti-CD3 antibody (MabTech, 100 ng/mL) and DMSO were used as positive and negative controls respectively. Plates were incubated at 37 degrees Celsius for ~ 24 hours and processed as described in the previous section.
# For experiments involving T cell depletion, CD4 T cells were depleted via magnetic separation using human CD4 Microbeads (Miltenyi Biotec) and an AutoMACS separator (Miltenyi Biotec) according to manufacturer’s instructions. Depleted cells were washed with MACS buffer prior to seeding on culture plates.
# For FluoroSpot assays, results were expressed as Spot Forming Units (SFU), calculated as the spot count per million PBMCs. The Stimulation Index (SI) was calculated as the average SFU in test wells/average SFU in DMSO control wells. For assays with fresh PBMCs, an SI of 2 or higher with a minimum of 50 SFU was counted as a positive IFN-γ/TNF-α response. For assays with expanded PBMCs, an SI of 1.4 or higher was set as the cutoff for a positive IFN-γ response. Predicted HLA binding alleles for each peptide were determined using MHCMotifDecon 1.0 as previously described ([13], [14], [23]). Predicted binding affinities for identified epitopes were determined using NetMHC 4.0 ([24]). Data tables and heatmaps were created using Excel. Data analysis and graphical representations were performed on Graph Pad Prism 10.
# To identify the immunodominant CD8 T cell epitopes within the HLA Class I MAPPs peptides, we utilized a system of matrix pools which facilitates rapid mapping of immunodominant epitopes when investigating a large number of peptides. The 41 HLA Class I MAPPs peptides were arranged into 13 matrix pools (MPs), each containing 6–7 peptides ( Supplementary Table 4 ). The matrix arrangement allows each Class I peptide to feature in two MPs, and a restimulation response to both MPs containing a specific peptide identifies putative immunodominant peptides that can be verified on an individual basis. Peptide deconvolution was performed on a cohort of 24 healthy donors. PBMCs were depleted of CD4 T cells and expanded as described before with the Class I MAPPs pool (41 peptides). Expanded PBMCs were restimulated on FluoroSpot assays with the 13 MPs.
# [2] = molecular target: HLA-A*02:01 (Homo sapiens, UniProt P04439, D140Y/D185E/D98H/E176V/E277Q/G131W/G231S/I119V/I121R/I166T/I218V/L300P/L318F/N151K/N90K/P208A/P217A/Q86G/Q94H/R138H/R169H/T345S); test: biochemical
# Description: (§1) The affinity of peptide/HLA binding was determined as described before ([21], [22]). Briefly, biotinylated HLA Class I heavy chains were denatured and diluted into refolding buffer containing β-mercaptoethanol and varying concentrations of the test/control peptides. The mixtures were incubated with agitation at room temperature for 20–24 hours to enable peptide/HLA complex formation. The solutions containing the complexes were transferred to streptavidin plates and incubated for 30 minutes. Plates were then developed using ELISA. Absorbance measured at 450 nm was graphed against the varying concentrations of the test peptide used. The affinity of peptide/HLA binding was determined by calculating the EC50, defined as the peptide concentration resulting in half saturation. Peptides with an EC50 under 100 nM were classified as high affinity binders.
# [3] = molecular target: HLA-A*01:01 (Homo sapiens, UniProt P04439, A114D/A174V/A182V/D101N/D185E/E176A/E190D/L180R/Q94H/R68K/S129P/T187R/V100A/V91M/W191G); test: biochemical
# Description: as §1
# [4] = molecular target: HLA-A*68:01 (Homo sapiens, UniProt P04439, A269V/D185E/E176V/E277Q/E87N/F33Y/G231S/I121M/I166T/I218V/L180W/L300P/L318F/N151K/P208A/P217A/Q86R/R169H/T345S); test: biochemical
# Description: as §1
# [5] = molecular target: HLA-C*03:03 (Homo sapiens, UniProt P10321, A176E/A330V/A97T/C25G/C350S/D114A/D33Y/E197K/G115R/L119I/L127V/L171W/L218V/M285V/M309V/M331V/P208H/Q277E/Q291P/R243W/R45H/S123Y/S140Y/S297R/S48A/T118I/T187L/T329A/T363A/V319A); details: C*03:03 measured as substitute for C*03:04; EC50 = peptide concentration at half saturation; refolding 20–24 h, room temperature, ELISA 450 nm; <100 nM = high affinity
# Description: as §1
# [6] = molecular target: HLA-B*27:05 (Homo sapiens, UniProt P01889, D138H/D201E/E176V/E204Q/G107R/H137Y/K202T/N104T/N87E/Q56L/Q94K/R106L/R155S/R180L/S101D/S121N/S48T/Y140D/Y33H/Y91C); test: Peptide/HLA binding affinity assay; details: EC50 = peptide concentration at half saturation; HLA heavy chain refolded with varying peptide conc., 20–24 h, room temperature, ELISA 450 nm; <100 nM = high affinity
# Description: Plates were then developed using ELISA.
# [7] = molecular target: HLA-B*35:01 (Homo sapiens, UniProt P01889, A329T/A93T/A95T/C349S/D201E/D98Y/E176V/E187L/E204Q/E69T/I218V/K202T/L119I/Q94N/R155S/R180L/S121R/S35A/S48A/T118I/V127L/V306I/V36M/Y140S/Y91F); test: biochemical
# Description: as §1
# [8] = molecular target: HLA-B*40:01 (Homo sapiens, UniProt P01889, A65T/A93T/A95T/D138N/D98Y/E176V/E69K/N87E/Q56L/Q94N/R180L/S121R/S35A/S48T/T167S/V36M/W171L/Y33H/Y91S); test: biochemical
# Description: as §1
# [9] = molecular target: HLA-C*07:01 (Homo sapiens, UniProt P10321, K90N/S123Y); test: biochemical
# Description: as §1
compound,measurement,setting,value
"QPAKKRLNF [Peptide 7, predicted allele B*07:02]",Total no. of responders,[1]; IFN-γ,0
same,T cell response in tested donors / donors with the predicted binding allele (in words),[1],did not elicit a response
same,% response in donors with allele(s),"[1]; IFN-γ, SI ≥1.4",0/6 (0%)
CC[C@H](C)[C@H](NC(=O)[C@@H](N)CC(C)C)C(=O)N[C@@H](CC(=O)O)C(=O)N[C@@H](CCC(N)=O)C(=O)N[C@@H](Cc1ccc(O)cc1)C(=O)N[C@@H](CC(C)C)C(=O)N[C@@H](Cc1ccc(O)cc1)C(=O)N[C@@H](Cc1ccc(O)cc1)C(=O)N[C@@H](CC(C)C)C(=O)O [Peptide 24] (H-LIDQYLYYL-OH),EC50,[2],0.6 nM
CC[C@H](C)[C@H](NC(=O)[C@@H]1CCCN1C(=O)[C@H](CCCNC(=N)N)NC(=O)[C@@H]1CCCN1C(=O)[C@H](CCC(=O)O)NC(=O)[C@H](CO)NC(=O)[C@@H](N)Cc1ccc(O)cc1)C(=O)NCC(=O)N[C@H](C(=O)N[C@@H](CCCNC(=N)N)C(=O)N[C@@H](Cc1ccc(O)cc1)C(=O)O)[C@@H](C)O [Peptide 41] (H-YSEPRPIGTRY-OH),EC50,[3],16.3 nM
CSCC[C@H](NC(=O)[C@H](CC(N)=O)NC(=O)[C@H](CO)NC(=O)[C@@H]1CCCN1C(=O)CNC(=O)[C@H](C)NC(=O)[C@@H](NC(=O)[C@@H](N)CO)C(C)C)C(=O)N[C@@H](C)C(=O)N[C@H](C(=O)N[C@@H](CCC(N)=O)C(=O)NCC(=O)N[C@@H](CCCNC(=N)N)C(=O)O)C(C)C [Peptide 26] (H-SVAGPSNMAVQGR-OH),EC50,[4],1.9 nM
same,"Binding affinity (nM), C*03:03",[5],Non-binder
CC(C)[C@H](NC(=O)[C@H](CC(N)=O)NC(=O)[C@H](CCC(=O)O)NC(=O)[C@H](Cc1ccccc1)NC(=O)[C@H](CCC(=O)O)NC(=O)[C@H](Cc1ccc(O)cc1)NC(=O)[C@H](CO)NC(=O)[C@H](Cc1ccccc1)NC(=O)[C@H](CCC(N)=O)NC(=O)[C@@H](N)Cc1ccccc1)C(=O)O [Peptide 21] (H-FQFSYEFENV-OH),EC50,[2],0.6 nM
CC(C)[C@H](NC(=O)[C@H](C)NC(=O)[C@H](CCCNC(=N)N)NC(=O)CN)C(=O)N[C@@H](Cc1ccccc1)C(=O)N[C@@H](CCC(N)=O)C(=O)N[C@@H](C)C(=O)N[C@@H](CCCCN)C(=O)N[C@@H](CCCCN)C(=O)O [Peptide 5] (H-GRAVFQAKK-OH),EC50,[6],83.9 nM
CC(C)C[C@H](N)C(=O)N[C@@H](CCCNC(=N)N)C(=O)N[C@H](C(=O)NCC(=O)N[C@@H](CC(N)=O)C(=O)N[C@@H](CC(N)=O)C(=O)N[C@@H](Cc1ccccc1)C(=O)N[C@@H](CCC(N)=O)C(=O)N[C@@H](Cc1ccccc1)C(=O)O)[C@@H](C)O [Peptide 20] (H-LRTGNNFQF-OH),EC50,[6],122 nM
CSCC[C@H](NC(=O)[C@H](CC(N)=O)NC(=O)[C@H](CO)NC(=O)[C@@H]1CCCN1C(=O)CNC(=O)[C@H](C)NC(=O)[C@@H](N)C(C)C)C(=O)N[C@@H](C)C(=O)N[C@H](C(=O)O)C(C)C [Peptide 27] (H-VAGPSNMAV-OH),"Binding affinity (nM), A*68:01","[4]; EC50 = peptide concentration at half saturation, HLA heavy chain refolded with varying peptide conc., 20–24 h, room temperature, ELISA 450 nm, <100 nM = high affinity",Non-binder
CC(C)C[C@H](NC(=O)[C@H](Cc1c[nH]cn1)NC(=O)[C@H](CC(N)=O)NC(=O)[C@H](CC(N)=O)NC(=O)[C@H](Cc1ccc(O)cc1)NC(=O)[C@@H](NC(=O)[C@@H]1CCCN1C(=O)[C@@H](N)CC(C)C)[C@@H](C)O)C(=O)N[C@@H](Cc1ccc(O)cc1)C(=O)O [Peptide 11] (H-LPTYNNHLY-OH),EC50,[7],96.7 nM
TDSDYQLPYVL [Peptide 13],T cell response in tested donors / donors with the predicted binding allele (in words),[1],elicited a T cell response
same,Responding donors,"[1]; peptide deconvolution in 24 healthy donors, '-' = no responding donor, IFN-γ, SI ≥1.4",Donor # 442
CSCC[C@H](NC(=O)[C@H](CCC(N)=O)NC(=O)[C@H](CO)NC(=O)[C@@H]1CCCN1C(=O)[C@H](Cc1ccccc1)NC(=O)[C@H](Cc1ccc(O)cc1)NC(=O)[C@H](CCC(=O)O)NC(=O)[C@@H](N)CC(C)C)C(=O)N[C@@H](CC(C)C)C(=O)O [Peptide 19] (H-LEYFPSQML-OH),EC50,[8],0.1 nM
CC(C)C[C@H](NC(=O)[C@H](C)NC(=O)[C@H](Cc1c[nH]c2ccccc12)NC(=O)[C@@H](NC(=O)[C@H](CCCNC(=N)N)NC(=O)[C@@H](N)[C@@H](C)O)[C@@H](C)O)C(=O)N1CCC[C@H]1C(=O)N[C@H](C(=O)N[C@@H](Cc1ccc(O)cc1)C(=O)O)[C@@H](C)O [Peptide 10] (H-TRTWALPTY-OH),EC50,[6],120 nM
same,EC50,[9],> 10000 nM
"SQAVGRSSF [Peptide 17, predicted allele B*15:01]",Total no. of responders,[1]; IFN-γ,0
same,T cell response in tested donors / donors with the predicted binding allele (in words),[1],did not elicit a response
same,% response in donors with allele(s),"[1]; IFN-γ, SI ≥1.4",0/2 (0%)
